The subject of data set [1] is cells from the thymus of normal BALB/c mice (lymphocyte proliferation). Nature of the data set: comitogen-induced thymocyte proliferation procedure (LAF). It is filed as cell-based. To be noted: read-out: LAF IC50. As for the experimental part:
(§1) Immunosuppressive activity for representative compounds of this invention was evaluated in an in vitro standard pharmacological test procedure to measure lymphocyte proliferation (LAF) and in an in vivo standard pharmacological test procedure which evaluated the survival time of a pinch skin graft.
Briefly, cells from the thymus of normal BALB/c mice are cultured for 72 hours with PHA and IL-1 and pulsed with tritiated thymidine during the last six hours. […] Cells are harvested and incorporated radioactivity is determined. Inhibition of lymphoproliferation is assessed as percent change in counts per minute from nondrug treated controls. For each compound evaluated, rapamycin was also evaluated for the purpose of comparison. An IC50 was obtained for each test compound as well as for rapamycin. […] The results obtained are provided as an IC50.

Data set [2] is described as follows: stability under physiological conditions (degradative hydrolysis in phosphate buffer). The format is physicochemical. How it is done:
The table below provides the […] in 0.1M phosphate buffer (pH 7.4) at 37° C.

The subject of data set [3] is pinch skin graft from male BALB/c donors transplanted to male C3 H(H-2K) recipients. Nature of the data set: survival time of pinch skin graft (allograft). It is filed as in vivo, male C3 H(H-2K) recipients (mice). To be noted: 4 mg/kg, intraperitoneally or orally; untreated controls rejected within 6-7 days. How it is done: as §1
Representative compounds of this invention were also evaluated in an in vivo test procedure designed to determine the survival time of pinch skin graft from male BALB/c donors transplanted to male C3 H(H-2K) recipients. The method is adapted from Billingham R. E. and Medawar P. B., J. Exp. Biol. 28:385-402, (1951 ). Briefly, a pinch skin graft from the donor was grafted on the dorsum of the recipient as a allograft, and an isograft was used as control in the same region. The recipients were treated with either varying concentrations of test compounds intraperitoneally or orally. Rapamycin was used as a test control. Untreated recipients serve as rejection control. The graft was monitored daily and observations were recorded until the graft became dry and formed a blackened scab. This was considered as the rejection day. The mean graft survival time (number of days±S.D.) of the drug treatment group was compared with the control group. […] Results are expressed as the mean survival time in days. Untreated (control) pinch skin grafts are usually rejected within 6-7 days. […]

The mark [4] stands for this setting: Mus musculus, Lymphocyte, 72 h culture with PHA and IL-1, tritiated thymidine during last six hours.
Where [5] appears, read: 72 h culture with PHA and IL-1, tritiated thymidine during last six hours.

Values joined by “and” are separate entries in the source; they are usually repeats but may differ in a detail not shown here. Identical values can stand only once. Like-named read-outs stand apart in the source and are kept apart here.

In general, IC50 refers to the midpoint of a concentration-inhibition curve. As for `CO/N=C1/C[C@@H]([C@H](C)C[C@@H]2CC[C@@H](OC(=O)COCC(=O)OCc3ccccc3)[C@H](OC)C2)OC(=O)[C@@H]2CCCCN2C(=O)C(=O)[C@]2(O)O[C@@H](CC[C@H]2C)C[C@H](OC)/C(C)=C/C=C/C=C/[C@@H](C)C[C@@H](C)C(=O)[C@H](OC)[C@H](O)/C(C)=C/[C@H]1C` [Example 8, Rapamycin (Z)-27-(O-methoxime), 42-ester with (5-benzyloxycarbonylmethoxy) acetic acid], the half-maximal inhibitory concentration (IC50) in data set [1] (setting [4]) came to 421 nM. What is called half-life is the time in which the quantity being followed falls by half. As for `CO/N=C1\C[C@@H]([C@H](C)C[C@@H]2CC[C@@H](O)[C@H](OC)C2)OC(=O)[C@@H]2CCCCN2C(=O)C(=O)[C@]2(O)O[C@@H](CC[C@H]2C)C[C@H](OC)/C(C)=C/C=C/C=C/[C@@H](C)C[C@@H](C)C(=O)[C@H](OC)[C@H](O)/C(C)=C/[C@H]1C` [Rapamycin (E)-27-(O-methoxime), rapamycin (E)-27-(O-methoxime)], in data set [2] (0.1m phosphate buffer, pH 7.4), the half-life was 59 h. With `CO/N=C1/C[C@@H]([C@H](C)C[C@@H]2CC[C@@H](OC(=O)CC[C@H](NC(=O)OC(C)(C)C)C(=O)OC(C)(C)C)[C@H](OC)C2)OC(=O)[C@@H]2CCCCN2C(=O)C(=O)[C@]2(O)O[C@@H](CC[C@H]2C)C[C@H](OC)/C(C)=C/C=C/C=C/[C@@H](C)C[C@@H](C)C(=O)[C@H](OC)[C@H](O)/C(C)=C/[C@H]1C` [Example 10, Rapamycin (Z)-27-(O-methoxime), 42-ester with (S)-5-tertbutoxy-4-tertbutoxycarbonylamino-5-oxo-pentanoic acid], the half-life in data set [2] (0.1m phosphate buffer, pH 7.4) is 264 h. In addition, in data set [2] (pH 7.4), the “stability toward degradation compared with rapamycin or the corresponding oxime or ester alone” value is listed as “significantly more stable toward degradation than rapamycin, or the corresponding oxime or ester alone”. Moreover, the 50% inhibitory concentration (IC50) in data set [1] (setting [4]) is 4.1 nM. Moreover, the “Skin Graft mean survival time (days ± SD)” value in data set [3] was 10.0 ± 0.2 days and 11.2 ± 0.8 days.

For the compound `CO[C@H]1C[C@@H]2CC[C@@H](C)[C@@](O)(O2)C(=O)C(=O)N2CCCC[C@H]2C(=O)O[C@H]([C@H](C)C[C@@H]2CC[C@@H](OC(=O)CC[C@H](NC(=O)OC(C)(C)C)C(=O)OC(C)(C)C)[C@H](OC)C2)C/C(=N/OCC#N)[C@H](C)/C=C(\C)[C@@H](O)[C@@H](OC)C(=O)[C@H](C)C[C@H](C)/C=C/C=C/C=C/1C` [Example 3, Rapamycin (Z)-27-O-(cyanomethyl)-oxime, 42-ester with N-(tert-butoxycarbonyl)-α-O-(tert-butyl)-L-glutamic Acid], the IC50 in data set [1] (setting [4]) worked out at 432 nM. As to `CO[C@H]1C[C@@H]2CC[C@@H](C)[C@@](O)(O2)C(=O)C(=O)N2CCCC[C@H]2C(=O)O[C@H]([C@H](C)C[C@@H]2CC[C@@H](OC(=O)CC[C@H](NC(=O)OC(C)(C)C)C(=O)OC(C)(C)C)[C@H](OC)C2)CC(=O)[C@H](C)/C=C(\C)[C@@H](O)[C@@H](OC)C(=O)[C@H](C)C[C@H](C)/C=C/C=C/C=C/1C` [rapamycin 42-ester with (S)-5-tertbutoxy-4-tertbutoxycarbonylamino-5-oxo-pentanoic acid, reference compound], the half-life in data set [2] (0.1m phosphate buffer, pH 7.4) was 24 h.

In the case of `CO[C@H]1C[C@@H]2CC[C@@H](C)[C@@](O)(O2)C(=O)C(=O)N2CCCC[C@H]2C(=O)O[C@H]([C@H](C)C[C@@H]2CC[C@@H](O)[C@H](OC)C2)CC(=O)[C@H](C)/C=C(\C)[C@@H](O)[C@@H](OC)C(=O)[C@H](C)C[C@H](C)/C=C/C=C/C=C/1C` [Rapamycin], the half-life in data set [2] (0.1M phosphate buffer (pH 7.4) at 37° C., read-out: Half Life (converted)) is 13 h. Moreover, the IC50 in data set [1] (Mus musculus, Lymphocyte) was in the range of 0.4 to 5.1 nM. The “Skin Graft mean survival time (days ± SD)” value in data set [3] worked out at 12.0 ± 1.7 days. As for `CO/N=C1\C[C@@H]([C@H](C)C[C@@H]2CC[C@@H](OC(=O)Oc3ccc([N+](=O)[O-])cc3)[C@H](OC)C2)OC(=O)[C@@H]2CCCCN2C(=O)C(=O)[C@]2(O)O[C@@H](CC[C@H]2C)C[C@H](OC)/C(C)=C/C=C/C=C/[C@@H](C)C[C@@H](C)C(=O)[C@H](OC)[C@H](O)/C(C)=C/[C@H]1C` [Example 9, Rapamycin (E)-27-(O-methoxime), 42-ester with (4-nitrophenoxy)carbonic acid], the figures for the IC50 in data set [1] (setting [5]) and in data set [1] (setting [4]) were 47 nM and 77 nM, respectively. `CO/N=C1/C[C@@H]([C@H](C)C[C@@H]2CC[C@@H](O)[C@H](OC)C2)OC(=O)[C@@H]2CCCCN2C(=O)C(=O)[C@]2(O)O[C@@H](CC[C@H]2C)C[C@H](OC)/C(C)=C/C=C/C=C/[C@@H](C)C[C@@H](C)C(=O)[C@H](OC)[C@H](O)/C(C)=C/[C@H]1C` [Rapamycin (Z)-27-(O-methoxime), rapamycin (Z)-27-(O-methoxime)] showed a half-life in data set [2] (0.1m phosphate buffer, pH 7.4) of 156 h. Take `CO/N=C1/C[C@@H]([C@H](C)C[C@@H]2CC[C@@H](OC(=O)CN(C)C)[C@H](OC)C2)OC(=O)[C@@H]2CCCCN2C(=O)C(=O)[C@]2(O)O[C@@H](CC[C@H]2C)C[C@H](OC)/C(C)=C/C=C/C=C/[C@@H](C)C[C@@H](C)C(=O)[C@H](OC)[C@H](O)/C(C)=C/[C@H]1C` [Example 7, Rapamycin (Z)-27-(O-methoxime), 42-ester with 2-N,N-dimethylglycine]: in data set [1] (setting [4]), the IC50 is 291 nM. Take `CO/N=C1\C[C@@H]([C@H](C)C[C@@H]2CC[C@@H](OC(=O)CC[C@H](NC(=O)OC(C)(C)C)C(=O)OC(C)(C)C)[C@H](OC)C2)OC(=O)[C@@H]2CCCCN2C(=O)C(=O)[C@]2(O)O[C@@H](CC[C@H]2C)C[C@H](OC)/C(C)=C/C=C/C=C/[C@@H](C)C[C@@H](C)C(=O)[C@H](OC)[C@H](O)/C(C)=C/[C@H]1C` [Example 11, Rapamycin (E)-27-(O-methoxime), 42-ester with (S)-5-tertbutoxy-4-tertbutoxycarbonylamino-5-oxo-pentanoic acid]: the IC50 is 321 nM in data set [1] (setting [5]) and 372 nM in data set [1] (setting [4]).

The values are drawn from patent US5373014A, “Rapamycin oximes” (American Home Products Corporation, priority 1993, dated 1994).
